IC50 data for 18 compounds are collected here from article PMC8956058, “Cembranolides and Related Constituents from the Soft Coral Sarcophyton cinereum” (Molecules, 2022).

Like-named read-outs stand apart in the source and are kept apart here.

Format in all cases: cell-based
Test [1] has as its system P388 cells (mouse lymphoma). Briefly: Alamar Blue cytotoxicity / anti-proliferation assay, P388. To be noted: triplicate, read-out: Anti-proliferation activities (IC50) P388. The method, then:
(§1) The assay was implemented according to the published protocols. In brief, the Alamar Blue assay was performed for compounds 2–19 by treating them with P388, DLD-1, HuCC-T1, and CCD966SK cancer cells, which were commercially available from the American Type Culture Collection (ATCC). The test was performed in triplicate, and doxorubicin was used as a positive control.
Background: Resazurin is reduced to fluorescent resorufin, in cell work by metabolically active cells.

Test [2] relates to DLD-1 cells (human colorectal adenocarcinoma). As to the kind of experiment: Alamar Blue cytotoxicity / anti-proliferation assay, DLD-1. To be noted: triplicate, read-out: Anti-proliferation activities (IC50) DLD-1. The procedure: as §1
The test system of test [3] is HuCCT-1 cells (human intrahepatic cholangiocarcinoma). Briefly: Alamar Blue cytotoxicity / anti-proliferation assay, HuCCT-1. To be noted: triplicate, read-out: Anti-proliferation activities (IC50) HuCCT-1. The method, then:
as §1

Test [4] concerns CCD966SK cells (human skin fibroblast). As to the kind of experiment: Alamar Blue cytotoxicity / anti-proliferation assay, CCD966SK. To be noted: triplicate, read-out: Anti-proliferation activities (IC50) CCD966SK. The method, then:
as §1

Setting [5] is: Mus musculus, P388, P388 mouse lymphoma.
Setting [6] is: Homo sapiens, DLD-1, DLD-1 human colorectal adenocarcinoma.
Where [7] appears, read: Homo sapiens, HuCCT-1, HuCCT-1 human intrahepatic cholangiocarcinoma.
[8] abbreviates: DLD-1 human colorectal adenocarcinoma.
Setting [9] is: HuCCT-1 human intrahepatic cholangiocarcinoma.

Take `CC(C)C1(O)C=CC(C)(O)CCC(O)C2(C)CCC=C(CC1)C(=O)O2` (stereo not drawn) [Compound 2, Cinerenolide B]: the IC50 in test [1] (setting [5]) is above 30 µM; in test [2] (setting [6]), above 30 µM; in test [3] (setting [7]), above 30 µM; in test [4] (Homo sapiens, Skin fibroblast), above 30 µM.

Regarding `CC(C)C1(O)C=CC(C)(O)CCC(O)C2(C)CCC=C(CC1)C(=O)O2` (stereo not drawn) [Compound 3, Cinerenolide C], the IC50 in test [1] (P388 mouse lymphoma), in test [2] (setting [8]), in test [3] (setting [9]) and in test [4] was above 30 µM in each case.

As to `C=C1CC[C@H]2O[C@]2(C)CCC2=C(C)CO[C@H]2/C=C(\C)CC[C@@H]1OC(C)=O` [Compound 4, sarcophytonoxide E], the IC50 was above 30 µM in test [1] (setting [5]); above 30 µM in test [2] (setting [6]); above 30 µM in test [3] (setting [7]); above 30 µM in test [4] (Homo sapiens, Skin fibroblast).

For `CC1=C2CC[C@@]3(C)O[C@@H]3CC[C@@](C)(OO)/C=C/C/C(C)=C/[C@@H]2OC1=O` [Compound 5, sarcomililatin A], the IC50 in test [1] (setting [5]) is 15.2 ± 3.2 µM; in test [2] (setting [6]) it was above 30 µM; in test [3] (setting [7]), above 30 µM; in test [4] (Homo sapiens, Skin fibroblast), above 30 µM.

On to `C=C1CC[C@H]2O[C@]2(C)CCC2=C(C)C(=O)O[C@H]2/C=C(\C)CC[C@H]1OO` [Compound 6, sarcomililatin B], for which the IC50 in test [1] (setting [5]) was 11.8 ± 4.6 µM; in test [2] (setting [6]), above 30 µM; in test [3] (setting [7]), above 30 µM; in test [4] (Homo sapiens, Skin fibroblast) it was above 30 µM.

Take `CC1=CCCC2(C)OC2CCC(C)=CC=C(C(C)(C)O)CC1` (stereo not drawn) [Compound 7, 2-[(E,E,E)-7′,8′-epoxy-4′,8′,12′-trimethylcyclotetradeca-1′,3′,11′-trienyl]propan-2-ol]: the IC50 was above 30 µM in test [1] (setting [5]); above 30 µM in test [2] (setting [6]); above 30 µM in test [3] (setting [7]); above 30 µM in test [4] (Homo sapiens, Skin fibroblast).

For the compound `C/C1=C\[C@H](O)CC2=C[C@@H](OC2=O)[C@H](C(C)C)CC/C(C)=C/CC1` [Compound 8, sarcophytonolide F], the IC50 in test [1] (setting [5]) was above 30 µM; in test [2] (setting [6]), above 30 µM; in test [3] (setting [7]), above 30 µM; in test [4] (Homo sapiens, Skin fibroblast), above 30 µM.

Take `CC1=C2CC[C@@]3(C)O[C@@H]3CC/C(C)=C/CC[C@@](C)(O)/C=C/2OC1=O` [Compound 9, cherbonolide L]: the IC50 in test [1] (setting [5]) was above 30 µM; in test [2] (setting [6]) it was above 30 µM; in test [3] (setting [7]) it was above 30 µM; in test [4] (Homo sapiens, Skin fibroblast), above 30 µM.

Turning to `CC1=C2CC[C@@]3(C)O[C@@H]3CC/C(C)=C/CC/C(C)=C/[C@@H]2OC1=O` [Compound 10, (+)-(2S)-isosarcophine], the IC50 in test [1] (setting [5]) was above 30 µM; in test [2] (setting [6]) it was above 30 µM; in test [3] (setting [7]) it was above 30 µM; in test [4] (Homo sapiens, Skin fibroblast), above 30 µM.

On to `CC1=C2CC[C@@]3(C)O[C@@H]3CC/C(C)=C/CC/C(C)=C/[C@H]2OC1=O` [Compound 11, (–)-(2R)-isosarcophine], for which the IC50 was above 30 µM in test [1] (setting [5]); above 30 µM in test [2] (setting [6]); above 30 µM in test [3] (setting [7]); above 30 µM in test [4] (Homo sapiens, Skin fibroblast).

On to `CC(=O)O[C@H]1/C=C(\C)CC[C@H]2O[C@]2(C)CCC2=C(C)CO[C@H]2/C=C(\C)C1` [Compound 12, sarcophytonoxide A], for which the IC50 in test [1] (setting [5]) is above 30 µM; in test [2] (setting [6]) it was above 30 µM; in test [3] (setting [7]), above 30 µM; in test [4] (Homo sapiens, Skin fibroblast), above 30 µM.

`CC(C)/C1=C/[C@@H](O)[C@]2(C)O[C@@H]2C[C@@H](O)[C@@]2(C)CCC=C(CC1)C(=O)O2` [Compound 13, sartrolide C]: the IC50 in test [1] (setting [5]) is above 30 µM; in test [2] (setting [6]), above 30 µM; in test [3] (setting [7]), above 30 µM; in test [4] (Homo sapiens, Skin fibroblast), above 30 µM.

For the compound `COC(=O)/C1=C\C=C(\C(C)C)CCC2=CCC[C@](C)(OC2=O)C(=O)CC1` [Compound 14, ketoemblide], the IC50 in test [1] (setting [5]) was above 30 µM; in test [2] (setting [6]) it was above 30 µM; in test [3] (setting [7]), above 30 µM; in test [4] (Homo sapiens, Skin fibroblast), above 30 µM.

As to `CC(=O)OC1CC(C)=CCCC(C)=CC(=O)CC23C(=O)OC(C1C(C)C)C2CC(C)=C1CCC2=CCCC(C)(OC2=O)C(O)CCC(C)=CC13` (stereo not drawn) [Compound 16, glaucumolide A], the IC50 in test [1] (P388 mouse lymphoma) was 16.7 ± 5.8 µM; in test [2] (setting [8]), above 30 µM; in test [3] (setting [9]), 19.1 ± 6.4 µM; in test [4] (Homo sapiens, Skin fibroblast), 21.3 ± 5.8 µM.

On to `CC(=O)OC1CC(C)=CCCC(C)=CC(=O)CC23C(=O)OC(C1C(C)C)C2CC(C)=C1CCC2=CCCC(C)(OC2=O)C(O)CCC(C)=CC13` (stereo not drawn) [Compound 17, glaucumolide B], for which the IC50 was 22.8 ± 9.7 µM in test [1] (P388 mouse lymphoma), above 30 µM in test [2] (setting [8]), above 30 µM in test [3] (setting [9]) and 26.1 ± 10.3 µM in test [4].

Consider `CC(=O)OC1CC(C)=CCCC(C)=CC(=O)CC23C(=O)OC(C1C(C)C)C2CC(C)=C1CCC2=CCCC(C)(OC2=O)C(O)CCC(C)=CC13` (stereo not drawn) [Compound 18, bistrochelide A], for which the IC50 in test [1] (P388 mouse lymphoma) worked out at 10.6 ± 1.9 µM; in test [2] (setting [8]) it was 9.9 ± 1 µM; in test [3] (setting [9]), 2 ± 0.1 µM; in test [4], 18.8 ± 6.9 µM.

Take `COc1cccc2c1C(=O)c1c(O)c3c(c(O)c1C2=O)C[C@@](O)(C(=O)CO)C[C@@H]3O[C@H]1C[C@H](N)[C@H](O)[C@H](C)O1` [Doxorubicin, doxorubicin, reference compound]: the IC50 in test [1] (setting [5]) stood at 0.69 ± 0.01 µM; in test [2] (setting [6]) it was 4.1 ± 0.7 µM; in test [3] (setting [7]) it was 1.9 ± 0.1 µM; in test [4] (Homo sapiens, Skin fibroblast), 2.9 ± 0.4 µM.

With isosarcophytonolide D [Compound 15], the IC50 in test [1] (P388 mouse lymphoma) is above 30 µM; in test [2] (setting [8]) it was above 30 µM; in test [3] (setting [9]), above 30 µM; in test [4], 27.6 ± 7.8 µM.
